The values below come from patent US8575107B2, “Clusterin derived peptide” (Compugen Ltd., priority 2008, dated 2013).

Where a SMILES comes first, the peptide text is derived from it.

One test deals with SK-MEL melanoma cells. As to the kind of experiment: MTT assay, growth of SK-MEL cells treated with CGEN-CL1. The test is classed as cell-based. How it is done:
(§1) CGEN-CL1 as synthesized in Example 1 was analyzed for its ability to induce growth arrest in various cancer cell lines, such as: breast cancer cell line MCF-7 (Adenocarcinoma, Breast, HTB-22, ATCC), PC3 (Adenocarcinoma, Prostate, CRL-1435, ATCC), A549 (carcinoma, Lung, CCL-185, ATCC), HT-29 (Colorectal Adenocarcinoma, Colon, HTB-38, ATCC) and SK-mel 5 (Melanoma, Skin, HTB70, ATCC).
SK-MEL 5 cells were seeded at 10,000 cells per well in 150 μl of media (DMEM medium+5% FBS) in a 96 well plate.
(§2) CGEN-CL1 (1 mg dissolved in 2500 of Sodium bi-carbonate to a stock concentration of 4 mg/ml) was added to the wells in 500 of medium (final volume of 2000) as detailed in Table 2. The relative growth was normalized to controls where CGEN-CL1 was not added to wells.
(§3) 20 μl of MTT (3-(4,5-Dimethyl-2-thiazolyl)-2,5-diphenyl-2H-tetrazolium bromide) solution (Sigma Cat#M5655, lot#085k5322, 1 gr was dissolved in 200 ml H2O and filtered, giving a final concentration of 5 mg/ml) was added to each well and incubated for 4 hours at 37° C. after which the medium was vacuumed and 100 μl of DMSO was added to each well. Absorbance was measured in an ELISA reader at 492 nm.
On the technique in general: Tetrazolium assays rely on reduction of a dye to a coloured formazan, in cell work by metabolically active cells.

In test [1] the test system is A549 human non-small cell lung cancer cells. As to the kind of experiment: In vivo A549 mouse xenograft model, CGEN-CL1 with paclitaxel. On the set-up: species or system Balb/c Nu/Nu female mice. The settings on record: A549 tumor bearing BALB/c nu/nu mice; CGEN-CL1 sc daily around tumor + paclitaxel 15 mg/kg IP; vs paclitaxel and vehicle. How it is done: In order to test the in-vivo activity of CGEN-CL1, Balb/c Nu/Nu female mice (10 in each group) were inoculated with 5×10^6 A549 human non-small cell lung cancer cells. Treatment was initiated when tumors reached 400-500 mm^3. One group received 15 mg/kg of paclitaxell (IP once every three days) and CGEN-CL1 [SEQ ID NO:1] (daily injected sub-cutaneously (sc) at the surrounding of the tumor) whereas the second group received paclitaxel and saline (at the same dose and route of administration). Tumor volume was measured every three days.

For test [2], the system named is HT29 colorectal adenocarcinoma cells. In words: MTT assay, growth of HT29 cells treated with CGEN-CL1. The test is classed as cell-based. On the procedure:
as §1
HT29 cells were seeded at 10,000 cells per well in 150 μl of media (DMEM medium+5% FBS) in a 96 well plate.
as §2, §3

The test system of test [3] is breast cancer cell line MCF-7.
Protocol: MCF7 cells were seeded at 10,000 cells per well in 150 μl of media (DMEM medium+5% FBS) in a 96 well plate.
For test [4], the target named is T1, recombinant human clusterin (Homo sapiens, UniProt P10909).
T1 construct: purchased Biovendor RD172034100
T1 sequence (P10909 23-449): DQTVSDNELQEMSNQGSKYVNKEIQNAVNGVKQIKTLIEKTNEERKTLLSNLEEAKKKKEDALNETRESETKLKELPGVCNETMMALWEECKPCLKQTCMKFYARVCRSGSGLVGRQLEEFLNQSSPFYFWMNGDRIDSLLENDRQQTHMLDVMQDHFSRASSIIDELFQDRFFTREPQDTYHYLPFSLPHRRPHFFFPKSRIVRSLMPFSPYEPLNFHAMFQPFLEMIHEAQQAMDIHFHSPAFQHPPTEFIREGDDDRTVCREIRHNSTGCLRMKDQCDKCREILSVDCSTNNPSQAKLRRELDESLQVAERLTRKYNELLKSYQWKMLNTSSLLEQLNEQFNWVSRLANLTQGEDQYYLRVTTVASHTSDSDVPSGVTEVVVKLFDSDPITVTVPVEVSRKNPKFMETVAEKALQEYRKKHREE
In words: BIAcore SPR, CGEN-CL1 co-incubated with partner helix, binding to clusterin. The settings on record: CGEN-CL1 and SEQ ID NO:5, 10 μM each, preincubated 30 minutes. How it is done: Peptide-protein interaction was analyzed using surface plasmon resonance. Analysis of the interaction between CGEN-CL1 [SEQ ID NO:1] and recombinant human clusterin (Biovendor, Modrice, Czech republic cat no: RD172034100) was conducted using the BIAcore biosensor (Pharmacia Biosensor, Uppsala, Sweden). Clusterin was immobilized directly to a CM5 sensor chip (2000 resonance units (RU)). Solution containing either 10 μM of CGEN-CL1 [SEQ ID NO:1] peptide or a mixture of CGEN-CL1 and its partner helix (SEQ ID NO:5), 10 μM each, preincubated for 30 minutes at room temperature, was injected to the BIAcore. As a background, the solutions were also injected onto an empty flow cell with no immobilized ligand and the binding levels achieved were subtracted. Data was analyzed using BIAevaluation software.

Test [5] concerns A549 human non-small cell lung cancer cells.
Protocol: A549 cells were seeded at 6000 cells per well in 150 μl of media (DMEM medium+5% FBS) in a 96 well plate.
In test [6] the test system is prostate adenocarcinoma cell line PC3. In words: MTT assay, CGEN-CL1 and/or paclitaxel on PC3 cells. The test is classed as cell-based. How it is done:
as §3
(§4) A549, PC3 and MCF7 cells were seeded at 6000, 8000 and 10,000 cells per well respectively in 150 μl of media (DMEM medium+5% FBS) in 96 well plates.
(§5) Paclitaxel (Sigma T7402, Lot. 036k1217, Mw 853.9, 5 mg dissolved in 585 μl DMSO to a stock concentration of 10 mM, stored at −20° C.) and/or CGEN-CL1 (1 mg dissolved in 250 μl of sodium bi-carbonate to a stock concentration of 4 mg/ml) were added to the wells in 25 μl of medium (final volume of 200 μl) as detailed in Table 3. The relative growth was normalized to controls where neither paclitaxel nor CGEN-CL1 was added to wells.
(§6) An MTT assay was performed as described above in Example 2.

Test [7] deals with PC3 cells. The note with it: MTT.
Protocol: PC3 cells were seeded at 8000 cells per well in 150 μl of media (DMEM medium+5% FBS) in a 96 well plate.
The test system of test [8] is PC3 cells. As to the kind of experiment: Cell cycle analysis by propidium iodide staining (FACS) in PC3 cells. The settings on record: 300 nM or 1 μM CGEN-CL1, PI staining. The test is classed as cell-based. How it is done:
Apoptosis was analyzed either by cell cycle analysis or by PARP cleavage estimation. The amount of cleaved PARP is proportional to the amount of cells undergoing apoptosis (see for example Boulares A. H., et al., 1999, JBC 274:22932-22940).
Cell Cycle Analysis was carried out by Propidium Iodide (PI) Staining. The cells were trypsinized and suspended in DMEM medium+10% FCS. Following centrifugation (1000 rpm, 5 min) the cell pellet was suspended in PBS (1 ml). Fixation with EtOH was performed as follows: cell suspension was transferred into 2.5 ml absolute EtOH (final concentration approx. 70%) by pipetting or by vortexing the suspension at half speed while adding the EtOH) to prevent clustering of cells during the fixation. EtOH fixated cells were incubated on ice for 15 min (or overnight at −20° C.).
Propidium Iodide (PI) staining of the cells was carried out as follows: the cells were pelleted at 1500 rpm for 5 min and then suspended in 500 μl PI-solution (in PBS: 50 μg/ml PI from 50× stock solution (2.5 mg/ml); 0.1 mg/ml RNase A; 0.05% Triton X-100), following incubation for 40 min at 37° C. Then 3 ml of PBS were added, and the cells were pelleted at 1500 rpm, 5 min. The cell pellet was suspended in 500 μl PBS for flow analysis. The flow analysis was carried out using the following approximate settings (on FACSort): FL1: 570 V log; FL2: 470 V linear.

The subject of test [9] is lung carcinoma cell line A549. In words: MTT assay, CGEN-CL1 and/or paclitaxel on A549 cells. The test is classed as cell-based, human. On the procedure: as §3, §4, §5, §6

The EC50 is the concentration needed to bring the measured effect to its halfway point. A high value points to a need for much substance.

Take `CC[C@H](C)[C@H](NC(=O)[C@H](CCCNC(=N)N)NC(=O)[C@H](CC(=O)O)NC(=O)CNC(=O)[C@H](CC(N)=O)NC(=O)[C@H](CCSC)NC(=O)[C@H](Cc1c[nH]c2ccccc12)NC(=O)[C@H](Cc1ccccc1)NC(=O)[C@H](Cc1ccc(O)cc1)NC(=O)[C@H](Cc1ccccc1)NC(C)=O)C(=O)N[C@@H](CC(=O)O)C(=O)N[C@@H](CO)C(=O)N[C@@H](CC(C)C)C(=O)N[C@@H](CC(C)C)C(=O)N[C@@H](CCC(=O)O)C(=O)N[C@@H](CC(N)=O)C(=O)N[C@@H](CC(=O)O)C(=O)N[C@@H](CCCNC(=N)N)C(=O)N[C@@H](CCC(N)=O)C(=O)N[C@@H](CCC(N)=O)C(=O)N[C@H](C(N)=O)[C@@H](C)O` [CGEN-CL1] (Ac-FYFWMNGDRIDSLLENDRQQT-NH2): the “growth inhibition as revealed by cellular viability” value in the test with SK-MEL melanoma cells is on record as “evoked growth inhibition”. In addition, in [1], the “reduction in tumor volume” value is reported as 25-30%. For the same compound, in [2], the “growth inhibition as revealed by cellular viability” value is reported as “evoked growth inhibition”. In [3], this compound came in with an EC50 of 56 nM. In addition, in [3] (MCF-7 breast cancer cells, MTT), the “concentration achieving maximal growth inhibition” value is reported as “approximately 900 nM” and the “concentration with a growth inhibiting effect (as little as)” value was determined as 50 nM. The “binding of CGEN-CL1 to recombinant Clusterin after co-incubation with partner helix” value in [4] is “completely abolished the binding”. For the same compound, in [5], the EC50 stood at 0.95 nM. Further, the “CGEN-CL1 concentration that sensitized cells to paclitaxel at sub-minimal doses (as little as)” value in test [6] came out at 7 nM. Also, the growth inhibition result in [6] (60 nM CGEN-CL1 combined with 5 nM paclitaxel) is “same growth inhibition rates as the growth inhibition achieved by 45 nM of paclitaxel alone”. The “growth inhibition relative to 45 nM of paclitaxel alone” value in [6] (60 nM CGEN-CL1 combined with 45 nM paclitaxel) was found to be 1.5 fold. For the same compound, the “effect between CGEN-CL1 and paclitaxel” value in test [6] (CGEN-CL1 at different concentrations with different doses of paclitaxel) is given as “synergistic effect”. Moreover, the “concentration evoking the maximal effect (as little as)” value in the test with PC3 cells [7] is on record as 15 nM. In the test with PC3 cells [8], the “percentage of apoptotic cells” value was “increased the percentage of apoptotic cells”; the “percentage of cells in cell cycle phases” value is “increased the percentage of cells in cell cycle phases G0/G1 and G2/M”. Moreover, in test [9], the “CGEN-CL1 concentration that sensitizes cells to sub-minimal concentrations of paclitaxel (as little as)” value turned out to be 1 nM. Further, in test [9] (CGEN-CL1 + paclitaxel), the “maximal effect (inhibition) in combination with paclitaxel” value stood at 73%. Also, the “maximal effect (inhibition) alone” value in test [9] (single agent) is given as 48%.
